# Laboratory results: patent EP0470323A2, “New salts of the nicotinic acid with aminobenzylic compounds and their pharmaceutical use” (BROMLEY LIMITED, priority 1990, dated 1992)
# System: Hypercholesterolaemia caused by Trit WR1339 in the mouses
# Experiment: Hypercholesterolaemia of the mouse caused by Triton WR 1339
# Type: in vivo
# Details: for Tot.Cholesterol M ± E.S. / Tot.Lipids M ± E.S.: 20 hours after Triton WR 1339 i.p.; for Tot.Cholesterol % vs contr. / Tot.Lipids % vs contr.: reduction
# Protocol: The method described by Garattini S. (Arzneim,Forsch 9, 206; 1959) with some modifications has been followed.
# The mouses used have been males of 22 to 28 grams body weight, on an empty stomach but with water "ad libitum" since 12 hours. The hyperlipidaemia was induced by means of an intraperitoneum administration of […] of Triton WR 1339, with dosage 300 mg/kg in a physiological solution. The subject products were administered at the same time in clear plain water, always in a volume of […] by means of a gastric probe. The animals were sacrified after 20 hours, by cutting them the carotids. The blood was collected in some plastic test-tubes, and was centrifuged at 3500 rpm for ten minutes. Thereafter the total cholesterol (Sornay R and colleagues, Arzeneim Forsch, 26,885 1976) and the total lipids (Chonhelmer R and colleagues, Biological Chemistry 106, 745, 1934) were determined.
compound,measurement,setting,value
"COc1cc(OC)c(C(=O)CCCN2CCCC2)c(OC)c1 [Example 1, 4-(1 pyrrholydinyl)-1-(2,4,6 trimethoxypheniyl)-1-nicotinized butanone]",reduction in both parameters (total cholesterol and total lipids),dosage of 2 mM/kg weight,43%
same,reduction in both parameters (total cholesterol and total lipids),dosage of 5 mM/kg weight,~60%
same,Tot.Cholesterol M ± E.S.,dose 1 mM/kg per os,221 ± 18 mg/100 ml
same,Tot.Lipids M ± E.S.,dose 1 mM/kg per os,1721 ± 164 mg/100 ml
same,Tot.Cholesterol % vs contr.,dose 1 mM/kg per os,"38,3%"
same,Tot.Lipids % vs contr.,dose 1 mM/kg per os,"29,3%"
same,Tot.Cholesterol M ± E.S.,dose 2 mM/kg per os,191 ± 15 mg/100 ml
same,Tot.Lipids M ± E.S.,dose 2 mM/kg per os,1315 ± 115 mg/100 ml
same,Tot.Cholesterol % vs contr.,dose 2 mM/kg per os,"46,6%"
same,Tot.Lipids % vs contr.,dose 2 mM/kg per os,"46,0%"
same,Tot.Cholesterol M ± E.S.,dose 4 mM/kg per os,133 ± 12 mg/100 ml
same,Tot.Lipids M ± E.S.,dose 4 mM/kg per os,1008 ± 117 mg/100 ml
same,Tot.Cholesterol % vs contr.,dose 4 mM/kg per os,"62,8%"
same,Tot.Lipids % vs contr.,dose 4 mM/kg per os,"58,6%"
